Experiment [1] deals with TGF-β production and type I & III collagen accumulation in rat UUO model. In words: Rat UUO model, immunohistochemistry of TGF-β and type I & III collagen. The following applies: kidney of UUO rats. The experiment is classed as in vivo. The procedure: Similar to the example 8, Kidney fibrosis was induced by Unilateral Ureteral Obstruction. And the animal experiments were performed to investigate whether AKF-PD has any effect on TGF-β production and collagen accumulation. These are two known factors for fibrotic lesion.
As shown by FIG. 1, sections A-C were immunohistochemically stained with specific antibody against TGF-β with brown color indicating TGF-β protein expression in kidney cells. All sections were also counterstained lightly with hematoxylin for viewing non-TGF-β stained cells.
Also shown by FIG. 2, type I and III collagen were analyzed by immunohistochemistry. The typical fibrotic fiber was viewed as brown color. There are a […] accumulation of both type I (B) and type III (E) collagen on the fibrotic kidney of UUO model. […] Reduced collagen level can be interpreted as the reduced ECM.

Experiment [2] concerns Kun Ming (KM) mice infected with Schistosoma miracidium. As to the kind of experiment: Schistosomial liver fibrosis in Kun Ming mice, egg granuloma area and immunohistology. The experiment is classed as in vivo. The following applies: for Schistosomo Egg Granuloma Area, Mean: all after Pyquiton 650 mg/kg 4 days, AKF-PD 500 mg/kg daily gavage, γ-interferon 50,000 unit daily i.m., 8 weeks. The source says: Kun Ming (KM) mice were infected with Schistosoma miracidium to induce schistosomial liver fibrosis. […] Ten Schistosoma miracidium were placed on shaved abdominal skin of each mouse for infection. […] Five hundred mg/kg AKF-PD were given daily by gavage to the disinfected mice of infected/AKF-PD group. The disinfected mice were given (i.m.) 50,000 unit γ-interferon daily. […] Drug or normal saline treatment was continued for 8 weeks. All mice were sacrificed one week after discontinue of drug treatment, and the left lobe of liver from each mouse was taken for pathological examination. Examination of HE-stained slices of liver tissue were carried out as follows. In general, after 16 weeks of Schistosoma miracidia infection, the area of schistosomo egg granuloma would directly correlate to the severity of liver fibrosis. Therefore, the area of schistosomo egg granuloma was measured using a high-resolution, color pathology graphic analyzer (HPIAS-1000). The sum of area of 5 granuloma with abundant eggs and the sum of area of 5 granuloma with few eggs were measured for each slice.

For experiment [3], the system named is Sprague-Dawley rats, Bleomycin-induced pulmonary fibrosis. As to the kind of experiment: Bleomycin-induced rat pulmonary fibrosis, severity of fibrotic lesions. The experiment is classed as in vivo. Particulars: AKF-PD 500 mg/kg daily by gavage; 27 days post surgery; total of 8 rats. On the procedure: Bleomycin-induced rat pulmonary fibrosis is selected for testing 5-methyl-1-(3′-fluorophenyl)-2(1H)-pyridone (AKF-PD). Male Sprague-Dawley rats (6-8 weeks old, 180 g˜220 g) were cared under regular condition. The animals were randomly divided into 3 groups: sham surgical group, model disease group, and disease/AKF-PD group. Six mg/kg/4 ml of Bleomycin was slowly infused into the trachea of rats in the model disease and disease/AKF-PD groups. Same amount of normal saline was infused into the trachea of rats in the sham surgical group.
Five hundred mg/kg AKF-PD was directly administrated by gavage to rats in the disease/AKF-PD group daily from 2 days prior to operation through 27 days after operation. Normal saline was used for all animals in both disease and sham surgical groups. The animals were sacrificed at 27 days post surgery and the lung tissues were removed for pathological sample preparation. The HE-stained lung tissues from each rat were examined under microscope to determine the frequency and severity of fibrotic lesion. Evaluation of lung tissue fibrosis was carried out according to the method of Szapiel et al., Bleomycin-induced interstitial pulmonary disease in the nude, athymic mouse. Am. Rev. Respir. Dis. 120:893-9(1979).

Experiment [4] relates to fibroblast. As to the kind of experiment: Inhibition of fibroblast, side-by-side comparison of substituents. The experiment is classed as cell-based. Particulars: structural formula II, n=1.
Where [5] appears, read: compared with pyquiton and Interferon-γ treated.

This note sets out measurements from patent US20090005424A9, “Composition and Method for Treating Fibrotic Diseases” (priority 2005, published 2009).

As to `Cc1ccc(=O)n(-c2cccc(F)c2)c1` [AKF-PD, 1-(3′-fluorophenyl)-5-methyl-2(1H)-pyridone], in experiment [1], the “TGF-β production (immunohistochemistry, FIG. 1)” value is recorded as “significantly reduced TGF-β production”; the “type I and III collagen accumulation or production (immunohistochemistry, FIG. 2)” value is “significantly blocks type I and III collagen accumulation or production”. Moreover, in experiment [2] (setting [5]), the “fibrotic nodule (immunohistological staining, FIG. 3)” value is listed as “much reduced fibrotic nodule” and the “type I collagen accumulation (immunohistological staining, FIG. 4)” value was “much less type I collagen accumulation”. Further, the “Schistosomo Egg Granuloma Area, Mean” value in experiment [2] (granuloma with abundant eggs) is 80155.11 μm^2. In experiment [2] (granuloma with few eggs), the “Schistosomo Egg Granuloma Area, Mean” value worked out at 30266.68 μm^2. In experiment [3], the “Number of rats with Severity of Fibrosis: Milder” value is 6, the “Number of rats with Severity of Fibrosis: Moderate” value came to 1, the “Number of rats with Severity of Fibrosis: None” value was determined as 0 and the “Number of rats with Severity of Fibrosis: Sever” value turned out to be 1. For the same compound, the activity inhibiting fibroblast entry in experiment [4] was “activities inhibiting fibroblast”.
